Data set [1] in a line: Solubility at a pH of 2.0. The data set is classed as physicochemical. The note with it: pH 2.
Data set [2] is described as follows: Solubility at a pH of 4.0. The class given is physicochemical. The note with it: pH 4.
The next data set deals with Canis familiaris. Nature of the data set: Non-toxic dose in dogs after 4 weeks of oral administration. The data set is classed as functional, Canis lupus familiaris.
Data set [3] concerns Helicobacter pylori. The data set is described as follows: Minimum inhibitory activity against clarithromycin- and metronidazole-resistant strain 16021. The class given is functional.
For data set [4], the system named is Helicobacter pylori. The data set is described as follows: Minimum inhibitory activity against clarithromycin- and metronidazole-resistant strain 16043. The data set is classed as functional.
Data set [5] concerns Helicobacter pylori. The data set is described as follows: Minimum inhibitory activity against clarithromycin- and metronidazole-resistant strain 15069. The data set is classed as functional.
Data set [6] concerns Helicobacter pylori. Nature of the data set: Minimum inhibitory activity against Helicobacter pylori FP1757. The data set is classed as functional.
Data set [7] has as its system Helicobacter pylori. The data set is described as follows: Minimum inhibitory activity against Helicobacter pylori FP1836. The class given is functional.
Data set [8] has as its system Rattus norvegicus. The data set is described as follows: In vivo gastric mucosa concentration administered perorally at 20 mg/kg was determined in rats at 0.5 hr. The data set is classed as functional. The conditions noted are these: route oral.
Data set [9] concerns Rattus norvegicus. Nature of the data set: In vivo gastric mucosa concentration administered perorally at 20 mg/kg was determined in rats at 1 hr. The class given is functional. The conditions noted are these: route oral.
Data set [10] has as its system Rattus norvegicus. Nature of the data set: In vivo gastric mucosa concentration administered perorally at 20 mg/kg was determined in rats at 2 hr. The data set is classed as functional. The note with it: route oral.
For data set [11], the system named is Rattus norvegicus. Nature of the data set: In vivo gastric mucosa concentration administered perorally at 20 mg/kg was determined in rats at 4 hr. The class given is functional. The note with it: route oral.
Data set [12] deals with Rattus norvegicus. Nature of the data set: Recovery rate from urine and bile was determined after iv administration at 20 mg/kg in rats. The class given is functional, organism-based. The arrangement: dose 20 mg/kg.
Data set [13] is described as follows: Therapeutic efficacy at an oral dose of 0.032 mg/kg in mouse. The data set is classed as ADME, organism-based. More on the design: dose 0.032 mg/kg, route oral. The note with it: in vivo.
Data set [14] is described as follows: Therapeutic efficacy at an oral dose of 0.1 mg/kg in mouse. More on the design: dose 0.1 mg/kg, route oral. The conditions noted are these: in vivo. The class given is ADME, organism-based.
A short description of data set [15]: Therapeutic efficacy at an oral dose of 0.125 mg/kg in guinea pig. The note with it: in vivo. The data set is classed as ADME, organism-based. More on the design: dose 0.125 mg/kg, route oral.
Data set [16] in a line: Therapeutic efficacy at an oral dose of 0.32 mg/kg in mouse. The class given is ADME, organism-based. More on the design: dose 0.32 mg/kg, route oral. The conditions noted are these: in vivo.
Data set [17] in a line: Therapeutic efficacy at an oral dose of 0.5 mg/kg in guinea pig. The class given is ADME, organism-based. More on the design: dose 0.5 mg/kg, route oral. The conditions noted are these: in vivo.
Data set [18] can be described thus: Therapeutic efficacy at an oral dose of 2 mg/kg in guinea pig. The class given is ADME, organism-based. More on the design: dose 2 mg/kg, route oral. The conditions noted are these: in vivo.
Data set [19] relates to Bacteroides fragilis. The data set is described as follows: Stability towards beta-lactamase was determined in […] FP784. The class given is functional, organism-based.
Data set [20] deals with Bacteroides fragilis. The data set is described as follows: Relative stability towards beta-lactamase was determined in […] FP784. The data set is classed as functional.
Data set [21] is described as follows: Retention time by HPLC as an index of polarity.
Data set [22] can be described thus: Partition coefficient by HPLC retention as an index of polarity. The data set is classed as ADME. The conditions noted are these: octanol/water.
Data set [23] relates to Helicobacter pylori. The data set is described as follows: Minimum inhibitory concentration against Helicobacter pylori FP1757. The data set is classed as functional.
Data set [24] is described as follows: Therapeutic efficacy at a dose of 0.1 mg/kg. The class given is ADME, organism-based. The arrangement: dose 0.1 mg/kg. The note with it: in vivo.
The nature of data set [25]: Therapeutic efficacy at a dose of 0.32 mg/kg. The class given is ADME, organism-based. The arrangement: dose 0.32 mg/kg. The conditions noted are these: in vivo.

Values after ≈ are worked out from the molar mass of the structure shown.

One may read the solubility as the concentration that dissolves in the medium under given conditions. Low readings indicate little dissolved substance, high ones much dissolved substance. The MIC is the lowest concentration found to suppress growth. A high value points to a need for much substance. Usually MIC50 stands for an inhibitory concentration at the 50% level, which refers to growth in some studies and to a panel of isolates in others. A word on the Km: it is the substrate concentration at which the rate is half of its maximum. As for `NC(=O)Cc1csc(SC2=C(C(=O)O)N3C(=O)[C@@H](NC(=O)Cc4ccccc4)[C@H]3SC2)n1`, the solubility in data set [1] was 431 µg/mL (≈ 879 µM); in data set [2], 2210 µg/mL (≈ 4500 µM). The molecule further showed a Dose in the data set on Canis familiaris of more than 100 mg/kg. Moreover, the MIC was 0.0016 µg/mL (≈ 0.00326 µM) against Helicobacter pylori [3], 0.0016 µg/mL (≈ 0.00326 µM) with Helicobacter pylori [4] and 0.0063 µg/mL (≈ 0.0128 µM) in the data set with Helicobacter pylori [5]. Further, the MIC50 with Helicobacter pylori [6] was found to be 0.00078 µg/mL (≈ 0.00159 µM); against Helicobacter pylori [7], 0.00313 µg/mL (≈ 0.00638 µM). The Gastric concentration in the data set on Rattus norvegicus [8] is 385 µg/g; in the data set with Rattus norvegicus [9], 163 µg/g; in the data set on Rattus norvegicus [10] it was 68 µg/g; with Rattus norvegicus [11], 38 µg/g. The molecule also had a Recovery rate with Rattus norvegicus [12] of 68%. For the same molecule, the Ratio in data set [13] was found to be 1; in data set [14], 4; in [15] it was 0; in [16], 5; in data set [17], 3; in data set [18], 5. In addition, in the data set with Bacteroides fragilis [20], the Ratio is listed as 1.06. Further, the Km in the data set with Bacteroides fragilis [19] came to 19.4 µg/mL. In addition, in the data set on Bacteroides fragilis [19], the Vmax stood at 0.647. Also, in data set [21], the HPLC retention time is given as 6.2 min.

Turning to `O=C(Cc1ccccc1)NC1C(=O)N2C(C(=O)O)=C(Sc3cnns3)CS[C@H]12` (some centres undefined), the Recovery rate in the data set with Rattus norvegicus [12] was 21%.

With `O=C(N[C@H](CO)[C@H](O)c1ccc([N+](=O)[O-])cc1)C(Cl)Cl` [CHLORAMPHENICOL], the MIC with Helicobacter pylori [3] was 50 µg/mL (≈ 155 µM); against Helicobacter pylori [4], 50 µg/mL (≈ 155 µM); in the data set with Helicobacter pylori [5] it was 25 µg/mL (≈ 77.4 µM).

Take `O=C(O)Cc1csc(SC2=C(C(=O)O)N3C(=O)[C@@H](NC(=O)Cc4ccccc4)[C@H]3SC2)n1`: the solubility in data set [1] was determined as 125 µg/mL (≈ 254 µM); in data set [2], 1820 µg/mL (≈ 3700 µM). The MIC50 in the data set on Helicobacter pylori [6] amounted to 0.00039 µg/mL (≈ 0.000793 µM); against Helicobacter pylori [7], 0.00313 µg/mL (≈ 0.00637 µM). The Gastric concentration is 377 µg/g with Rattus norvegicus [8], 150 µg/g in the data set with Rattus norvegicus [9], 111 µg/g in the data set on Rattus norvegicus [10] and 63 µg/g in the data set with Rattus norvegicus [11]. For the same molecule, the Ratio in data set [13] is recorded as 2; in data set [14], 1; in [15], 0; in [16], 5; in [17], 0; in data set [18], 2. For the same molecule, the HPLC retention time in [21] worked out at 9.9 min.

Take `O=C(Cc1cccs1)N[C@@H]1C(=O)N2C(C(=O)[O-])=C(C[n+]3ccccc3)CS[C@H]12`: the Km in the data set with Bacteroides fragilis [19] was found to be 31.7 µg/mL.

Consider `Cc1nnc(SC2=C(C(=O)O)N3C(=O)[C@@H](NC(=O)Cc4csc(N)n4)[C@H]3SC2)s1`, for which the HPLC retention time in data set [22] was 1 min. Moreover, the MIC with Helicobacter pylori [23] was determined as 0.00078 µg/mL (≈ 0.00166 µM). Moreover, the figures for the Ratio in [24] and in [25] were 0 and 1, respectively.

Turning to `Cc1nnc(SC2=C(C(=O)O)N3C(=O)C(NC(=O)Cc4ccccc4)[C@H]3SC2)s1` (some centres undefined), the HPLC retention time in data set [22] and in [21] was 10 min in each case. Besides, the solubility is 53 µg/mL (≈ 118 µM) in [1] and 1050 µg/mL (≈ 2340 µM) in data set [2]. For the same molecule, the Dose in the data set on Canis familiaris is less than 32 mg/kg. Further, it took 0.00156 µg/mL (≈ 0.00348 µM) to inhibit growth in the data set on Helicobacter pylori [23] (MIC). Moreover, the MIC50 against Helicobacter pylori [7] was determined as 0.00313 µg/mL (≈ 0.00698 µM). Moreover, the Gastric concentration was 89 µg/g in the data set on Rattus norvegicus [8], 83 µg/g in the data set on Rattus norvegicus [9], 48 µg/g with Rattus norvegicus [10] and 23 µg/g in the data set with Rattus norvegicus [11]. This molecule also came in with a Recovery rate in the data set with Rattus norvegicus [12] of 33%. In addition, the Ratio in data set [24] worked out at 2; in data set [25], 5; in data set [13], 1; in data set [14], 2; in data set [15] it was 0; in data set [16] it was 5. Further, the Ratio in [17] was 2; in data set [18] it was 5.

As for `O=C(Cc1ccccc1)NC1C(=O)N2C(C(=O)O)=C(Sc3nccs3)CS[C@H]12` (some centres undefined), the Recovery rate with Rattus norvegicus [12] was determined as 63%.

In the data set on Rattus norvegicus [12], `O=C(Cc1ccccc1)NC1C(=O)N2C(C(=O)O)=C(Sc3nncs3)CS[C@H]12` (some centres undefined) showed a Recovery rate of 9%.

With `Cc1ncc([N+](=O)[O-])n1CCO` [METRONIDAZOLE], the MIC against Helicobacter pylori [3] is 50 µg/mL (≈ 292 µM); in the data set with Helicobacter pylori [4] it was 50 µg/mL (≈ 292 µM); against Helicobacter pylori [5], 25 µg/mL (≈ 146 µM).

On to `CC1(C)S[C@@H]2[C@H](NC(=O)[C@H](N)c3ccc(O)cc3)C(=O)N2[C@H]1C(=O)O` [AMOXICILLIN], for which the MIC with Helicobacter pylori [3] turned out to be 0.025 µg/mL (≈ 0.0684 µM); with Helicobacter pylori [4] it was 0.05 µg/mL (≈ 0.137 µM); in the data set on Helicobacter pylori [5], 0.2 µg/mL (≈ 0.547 µM). In addition, the MIC50 was found to be 0.0125 µg/mL (≈ 0.0342 µM) against Helicobacter pylori [6] and 0.05 µg/mL (≈ 0.137 µM) against Helicobacter pylori [7]. Besides, the Km in the data set on Bacteroides fragilis [19] was 27.3 µg/mL. Besides, in the data set with Bacteroides fragilis [19], the Vmax is 0.0175.

(Values after ChEMBL document CHEMBL1146745, “Studies on anti-Helicobacter pylori agents. Part 3: A novel, efficacious cephem derivative, FR193879” (Bioorg Med Chem Lett, 2004).)
